Results published in ChEMBL document CHEMBL1125161, “O'-(epoxyalkyl)tyrosines and (epoxyalkyl)phenylalanine as irreversible inactivators of serine proteases: synthesis and inhibition mechanism” (J Med Chem, 1990).

Experiments:
[1] = target: Chymotrypsinogen A (Bos taurus) (UniProt P00766); experiment: (§1) Ratio of the kinetic constants kH versus ki was reported
Chymotrypsinogen A = Chymotrypsinogen A (Bos taurus, UniProt P00766); experiment: (§2) Inhibitory activity against alpha-chymotrypsin
[2] = target: Chymotrypsinogen A (Bos taurus) (UniProt P00766); experiment: (§3) The ratio (ki + kH)/ki (turnover ratio) was determined using ultimate activity assay
[3] = target: Chymotrypsinogen A (Bos taurus) (UniProt P00766); experiment: (§4) Ratio of the kinetic constants (ki X 10e3) versus Ki was reported
[4] = target: Chymotrypsinogen A (Bos taurus) (UniProt P00766); experiment: as §2
[5] = as §1
[6] = (§5) Inhibitory activity against subtilisin
[7] = as §5; remark: listed apart in the source
[8] = as §5; remark: listed apart in the source
[9] = as §3
[10] = as §4
Subtilisin (Bacillus) [11] = experiment: Inhibitory activity against subtilisin
Subtilisin (Bacillus) [12] = experiment: Ratio of the kinetic constants (ki X 10e3) versus Ki was reported
Subtilisin (Bacillus) [13] = experiment: The ratio (ki + kH)/ki (turnover ratio) was determined using ultimate activity assay
Subtilisin (Bacillus) [14] = experiment: Ratio of the kinetic constants kH versus ki was reported

CCOC(=O)[C@H](Cc1ccc(OCCCC2CO2)cc1)NC(=O)c1ccccc1 (some centres not stated) showed a Ratio [1] of 109, a Ki (Chymotrypsinogen A) of 35 µM and a Ratio [2] of 26. It also gave a Ratio [3] of 2400 M⁻¹ min⁻¹, a k obs [4] of 0.00017 s⁻¹ and a kH [4] of 0.15 s⁻¹.

Work on O=C(N[C@@H](Cc1ccc(OCC2CO2)cc1)C(=O)Nc1ccc([N+](=O)[O-])cc1)c1ccccc1 (some centres not stated) yielded a Ratio [1] of 184, a Ki (Chymotrypsinogen A) of 66 µM and a Ratio [2] of 80. The Ratio [3] was 3000 M⁻¹ min⁻¹, the k obs [4] was 0.00037 s⁻¹ and the kH [4] was 0.61 s⁻¹.

O=C(N[C@@H](Cc1ccc(OCCC2CO2)cc1)C(=O)Nc1ccc([N+](=O)[O-])cc1)c1ccccc1 (some centres not stated) showed a Ratio [1] of 60, a Ki (Chymotrypsinogen A) of 59 µM and a Ratio [2] of 20. It also gave a Ratio [3] of 14000 M⁻¹ min⁻¹, a k obs [4] of 0.00056 s⁻¹ and a kH [4] of 0.83 s⁻¹.

For CCOC(=O)[C@H](Cc1ccc(OCCC2CO2)cc1)NC(C)=O (some centres not stated), the Ratio [5] was 1300, the k obs [6] was 0.0014 s⁻¹ and the kH [6] was 11.8 s⁻¹. For the same compound, the Ki [7] was 140 µM, the Ki [8] was 0.0092 s⁻¹ and the Ratio [9] was 500. For the same compound, the Ratio [10] was 3900 M⁻¹ min⁻¹.

For CCOC(=O)[C@H](Cc1ccc(OCC2CO2)cc1)NC(=O)c1ccccc1 (some centres not stated), the Ratio [1] was 300, the Ki (Chymotrypsinogen A) was 380 µM and the Ratio [2] was 68. The Ratio [3] was 260 M⁻¹ min⁻¹, the k obs [4] was 0.00055 s⁻¹ and the kH [4] was 5.2 s⁻¹.

For CCOC(=O)[C@H](Cc1ccc(OCCC2CO2)cc1)NC(=O)c1ccccc1 (some centres not stated), the Ratio [1] was 28, the Ki (Chymotrypsinogen A) was 57 µM and the Ratio [2] was 13. For the same compound, the Ratio [3] was 14600 M⁻¹ min⁻¹, the k obs [4] was 0.00027 s⁻¹ and the kH [4] was 0.38 s⁻¹.

CCOC(=O)[C@H](Cc1ccc(OCC2CO2)cc1)NC(C)=O (some centres not stated) showed a k obs (Subtilisin (Bacillus) [11]) of 0.0011 s⁻¹, a kH (Subtilisin (Bacillus) [11]) of 13.8 s⁻¹ and a Ratio (Subtilisin (Bacillus) [12]) of 1000 M⁻¹ min⁻¹. The Ratio (Subtilisin (Bacillus) [13]) was 2000 and the Ratio (Subtilisin (Bacillus) [14]) was 3900.
